Assay results from patent US9850273B2, “Combination of estrogens plus antiprogestins with significant partial agonistic effect as an effective treatment of menopausal symptoms and for prevention of the occurrence of breast cancer” (Evestra, Inc., priority 2014, dated 2017).
Like-named read-outs stand apart in the source and are kept apart here.

Columns and labels:
progesterone receptor [1] = target: T1, progesterone receptor (Homo sapiens, UniProt P06401); assay: PR transactivation assay, agonistic activity (PR luciferase reporter); format: cell-based; conditions: T47D cells
T1 sequence (P06401 679-933 limits assumed): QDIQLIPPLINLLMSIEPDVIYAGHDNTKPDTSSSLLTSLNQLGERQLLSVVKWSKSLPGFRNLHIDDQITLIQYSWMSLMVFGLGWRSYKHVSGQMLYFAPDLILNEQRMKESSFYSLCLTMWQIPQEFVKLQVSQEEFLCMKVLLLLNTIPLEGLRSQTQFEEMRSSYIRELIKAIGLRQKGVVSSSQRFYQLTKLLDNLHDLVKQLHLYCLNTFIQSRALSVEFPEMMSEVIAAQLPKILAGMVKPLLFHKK
Method: (§1) Transactivation Assay for Progesterone Agonist and Antagonistic Activity (See Table 1).
Experimental: PR transactivation studies was carried out in human breast cancer (T47D) cells, grown in RPMI medium without phenol red and 5% charcoal stripped fetal bovine serum, transiently transfected with PR luciferase reporter (CCS-6043L signal reporter assay kit, Qiagen). The cells were stimulated R5020 as PR agonist and treated in the presence or absence of the tested compounds for 24 hours. The effect was calculated using dual luciferase assay kit (Promega, WI)) based on RU486 as full antagonist and R5020 as agonist for progesterone receptor.

progesterone receptor [2] = target: T2, progesterone receptor (Homo sapiens, UniProt P06401); assay: PR transactivation assay, antagonistic activity (PR luciferase reporter); format: cell-based; conditions: for Ratio of IC50's: PR agonism / PR antagonism
T2 sequence (P06401 165-933 limits assumed): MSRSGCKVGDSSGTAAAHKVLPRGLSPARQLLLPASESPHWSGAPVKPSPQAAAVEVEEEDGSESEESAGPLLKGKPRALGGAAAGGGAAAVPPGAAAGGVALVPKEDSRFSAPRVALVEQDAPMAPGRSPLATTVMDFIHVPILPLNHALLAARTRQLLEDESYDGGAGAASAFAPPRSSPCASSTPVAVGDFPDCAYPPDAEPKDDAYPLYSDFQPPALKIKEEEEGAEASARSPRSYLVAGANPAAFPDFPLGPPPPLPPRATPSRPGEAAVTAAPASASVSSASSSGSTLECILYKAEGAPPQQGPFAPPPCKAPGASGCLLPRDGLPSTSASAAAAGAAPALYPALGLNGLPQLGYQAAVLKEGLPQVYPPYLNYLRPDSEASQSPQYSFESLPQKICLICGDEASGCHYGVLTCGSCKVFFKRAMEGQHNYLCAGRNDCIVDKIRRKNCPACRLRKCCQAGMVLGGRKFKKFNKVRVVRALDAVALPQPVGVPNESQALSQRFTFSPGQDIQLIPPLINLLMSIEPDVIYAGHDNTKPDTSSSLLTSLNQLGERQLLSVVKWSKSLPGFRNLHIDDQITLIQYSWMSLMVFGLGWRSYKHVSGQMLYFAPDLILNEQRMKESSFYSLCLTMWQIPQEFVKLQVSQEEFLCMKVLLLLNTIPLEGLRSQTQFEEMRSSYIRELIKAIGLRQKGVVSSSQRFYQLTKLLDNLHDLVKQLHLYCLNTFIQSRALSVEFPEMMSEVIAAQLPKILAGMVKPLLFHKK
Method: as §1
Experimental: PR transactivation studies was carried out in human breast cancer (T47D) cells, grown in RPMI medium without phenol red and 5% charcoal stripped fetal bovine serum, transiently transfected with PR luciferase reporter (CCS-6043L signal reporter assay kit, Qiagen). The cells were stimulated R5020 as PR agonist and treated in the presence or absence of the tested compounds for 24 hours.

guinea pig = assay: Guinea pig model (ovulation inhibition, uterine weight, vagina, ovary, classification); format: in vivo; conditions: for Classification: guinea pig model; for Uterine Weight at max. dose (10.mg/day s.c.) / ER-/PR balance vagina. / Ovary (CL): guinea pig; for ER-/PR balance vagina. / Ovary (CL): at max. dose (10.mg/day s.c.); for Ovary (CL): CL = corpora lutea
[3] = system: estradiol-primed immature female rabbits; assay: McPhail and anti-McPhail tests in rabbits; format: in vivo, rabbit; conditions: dose of 3 mg/animal/day
Text: The McPhail test in the immature female rabbit is a well-established model to test progestatational and antiprogestational activity [McPhail 1934).

[4] = T47D cells, stimulant R5020, read-out: IC50 Average of 2 expts
[5] = Table 2 summary, read-out: PR antagonism (IC50)
[6] = stimulant R5020, read-out: EC50

| Structure (SMILES) | EC50 (progesterone receptor [1]; control compound R5020, read-out: Control EC50) [pM] | Ratio of IC50's (progesterone receptor [2]) | Antagonist rel to RU486 (%) (progesterone receptor [2]; T47D cells, stimulant R5020) | IC50 (progesterone receptor [2]; [4]) [pM] | IC50 (progesterone receptor [2]; [5]) [pM] | Agonist rel to R5020 (%) (progesterone receptor [1]) | EC50 (progesterone receptor [1]; [6]) [pM] | Classification (guinea pig) | Uterine Weight at max. dose (10.mg/day s.c.) (guinea pig) | ER-/PR balance vagina. (guinea pig) | Ovary (CL) (guinea pig) | progestational activity (McPhail test) [3] |
| --- | --- | --- | --- | --- | --- | --- | --- | --- | --- | --- | --- | --- |
| CCC(=O)[C@@]1(C)CC[C@H]2[C@@H]3CCC4=CC(=O)CCC4=C3CC[C@@]21C [R5020, reference compound] | 350 | – | – | – | – | – | – | – | – | – | – | – |
| CC(=O)C1[C@H](C)CC2C3CCC4=CC(=O)CCC4=C3[C@@H](c3ccc(-c4cccnc4)cc3)C[C@@]21C (stereo partly drawn) [EC348, 11β-{4′-[3′-pyridinyl)phenyl}-16α-methyl-19-norpregna-4,9-diene-3,20-dione] | – | 11.8 | 292.7 | 390 | 390 | 7.0 | 4610 | mesoprogestin | 1.01 | PR-domin | degenerated | – |
| C=C[C@@H]1CC2C3CCC4=CC(=O)CCC4=C3[C@@H](c3ccc(-c4cccnc4)cc3)C[C@]2(C)C1C(C)=O (stereo partly drawn) [EC344, 11β-{4′-[3′-pyridinyl)phenyl}-16α-ethenyl-19-norpregna-4,9-diene-3,20-dione] | – | – | 324 | 350 | – | 0.32 | – | – | – | – | – | – |
| CC(=O)O[C@]1(C(C)=O)CC[C@H]2[C@@H]3CCC4=CC(=O)CCC4=C3[C@@H](c3ccc(N(C)C)cc3)C[C@@]21C [CDB-2914, reference compound] | – | 38.4 | 120 | 650 | 650 | 1.5 | 21500 | blunted PR- | (1.01) | ER-domin. | degenerated | didn't show any activity at all |
| C[C@]12C[C@H](c3ccc(S(C)(=O)=O)cc3)C3=C4CCC(=O)C=C4CC[C@H]3[C@@H]1CC[C@@]2(O)C(F)(F)C(F)(F)F [BAY 1002670, reference compound] | – | 28.7 | 342.9 | 325 | 330 | 3.9 | 9500 | – | – | – | – | – |

Continued, in another order:

| EC50 (progesterone receptor [1]; control compound R5020, read-out: Control EC50) [pM] | Ratio of IC50's (progesterone receptor [2]) | Antagonist rel to RU486 (%) (progesterone receptor [2]; T47D cells, stimulant R5020) | IC50 (progesterone receptor [2]; [4]) [pM] | IC50 (progesterone receptor [2]; [5]) [pM] | Agonist rel to R5020 (%) (progesterone receptor [1]) | EC50 (progesterone receptor [1]; [6]) [pM] | Structure (SMILES) | Classification (guinea pig) | Uterine Weight at max. dose (10.mg/day s.c.) (guinea pig) | ER-/PR balance vagina. (guinea pig) | Ovary (CL) (guinea pig) | progestational activity (McPhail test) [3] |
| --- | --- | --- | --- | --- | --- | --- | --- | --- | --- | --- | --- | --- |
| – | 2.2 | 57.1 | 2100 | 2100 | 6.4 | 4750 | CC[C@@H]1CC2C3CCC4=CC(=O)CCC4=C3[C@@H](c3ccc(-c4ccoc4)cc3)C[C@]2(C)C1C(C)=O (stereo partly drawn) [EC343, 11β-{4′-[3′-furanyl)phenyl}-16α-ethyl-19-norpregna-4,9-diene-3,20-dione] | – | – | – | – | – |
| – | – | 378 | 300 | – | 0.32 | – | CC[C@@H]1CC2C3CCC4=CC(=O)CCC4=C3[C@@H](c3ccc(-n4ccnc4)cc3)C[C@]2(C)C1C(C)=O (stereo partly drawn) [EC346, 11β-{4′-[1′ imidazolyl)phenyl}-16α-ethyl-19-norpregna-4,9-diene-3,20-dione] | mesoprogestin | 0.8 | PR-domin | degenerated | – |
| – | 3.5 | 120 | 950 | 950 | 9.7 | 3400 | C=C[C@@H]1CC2C3CCC4=CC(=O)CCC4=C3[C@@H](c3ccc(-n4ccnc4)cc3)C[C@]2(C)C1C(C)=O (stereo partly drawn) [EC347] | mesoprogestin | 1.01 | PR-domin | degenerated | – |
